Where two headings read alike, the source gives them in different places.
Experiments:
[1] = biological target: T1, rat GPR14 (U-II receptor) (Rattus norvegicus, UniProt P49684); assay: Rat UII Calcium Mobilization FLIPR Assay; assay type: cell-based; settings: CHO cells transfected with rat GPR14; antagonist activity after 5 min incubation vs agonist (Ac)-CFWK(2-NaI)C-NH2 at 1 nM
T1 construct: expressed in transfected cells
T1 sequence (P49684 1-386): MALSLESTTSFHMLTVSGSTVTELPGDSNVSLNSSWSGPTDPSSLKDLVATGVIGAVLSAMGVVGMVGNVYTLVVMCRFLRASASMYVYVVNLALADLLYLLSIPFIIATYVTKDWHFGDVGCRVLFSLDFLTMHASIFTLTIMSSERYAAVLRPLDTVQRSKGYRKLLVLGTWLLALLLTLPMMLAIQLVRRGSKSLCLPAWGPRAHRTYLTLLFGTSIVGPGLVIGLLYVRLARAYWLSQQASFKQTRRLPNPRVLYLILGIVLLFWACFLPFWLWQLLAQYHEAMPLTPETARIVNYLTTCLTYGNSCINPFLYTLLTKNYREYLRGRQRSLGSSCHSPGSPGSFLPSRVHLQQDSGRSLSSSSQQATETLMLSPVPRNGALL
Source text: To derive these cells, the complete coding sequence of rat U-II (Genbank Accession No. U32673) was amplified by nested PCR from rat heart marathon-Ready cDNA. […] The PCR products were cloned into pcDNA3 (Invitrogen) digested with EcoR I and Xba I. Clones containing rat U-II receptor were verified by complete sequencing of the U-II receptor insert to ensure a lack of PCR-introduced errors. The constructed vector was transfected into CHO cells by using lipofectamine (GIBCO BRL). CHO cells with high expression of rat U-II receptor were selected and established as stable cell lines by using G418. CHO cells were seeded at 25,000 cells per well into 96-well, black-wall, clear-bottom microtiter plates 24 h before assay. Cells in culture media (DMEM/F12 containing 15 mM HEPES, L-glutamine, pyridoxine hydrochloride; 10% fetal bovine serum; 1 mg/mL G418 sulfate; antibiotic-antimycotic; pH 7.4) were loaded with proprietary dye, from the FLIPR Calcium Assay Kit (Molecular Devices), prepared in assay buffer (Hanks Balanced Salts Solution, 20 mM HEPES, 0.1% BSA, 2.5 mM probenecid, pH 7.4), and incubated for 1 h at 37° C. Calcium mobilization determinations were performed at room temperature (23° C.).

[2] = biological target: T2, Human UII (U-II receptor) in 6D9 human rhabdomyosarcoma cells (Homo sapiens, UniProt Q9UKP6); assay: Human UII Calcium Mobilization Assay; assay type: cell-based; settings: 6D9 human rhabdomyosarcoma cells, FLIPR TETRA, average; read-out: Human UII Ca+ Mobilization Average IC50
T2 construct: 6D9: isolated by dilution subcloning of RMS13 cells, ATCC® Number: CRL-2061; host or cells: 6D9 human rhabdomyosarcoma cells (subclone of RMS13)
T2 sequence (Q9UKP6 1-389): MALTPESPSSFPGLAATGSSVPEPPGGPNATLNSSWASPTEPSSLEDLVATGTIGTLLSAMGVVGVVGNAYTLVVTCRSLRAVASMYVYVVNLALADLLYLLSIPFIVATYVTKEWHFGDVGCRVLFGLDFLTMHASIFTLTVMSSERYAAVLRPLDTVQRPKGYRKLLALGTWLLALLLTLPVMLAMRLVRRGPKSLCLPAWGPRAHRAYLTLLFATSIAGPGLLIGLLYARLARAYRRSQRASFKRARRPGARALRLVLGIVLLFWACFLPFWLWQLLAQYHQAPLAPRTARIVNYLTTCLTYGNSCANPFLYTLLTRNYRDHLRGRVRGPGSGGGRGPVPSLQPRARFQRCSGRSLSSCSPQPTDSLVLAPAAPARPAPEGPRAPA
Description: 25 μL of dye solution was added to the wells such that the final liquid volume before agonist/antagonist treatment was 50 μL for all assays. The cell plates were incubated at 37° C. for 45 minutes and the fluorescence intensity was measured on a Fluorometric Imaging Plate Reader (FLIPR^TETRA, Molecular Devices, Sunnyvale, Calif.).
Antagonist and agonist U-II were added at room temperature on the FLIPR^TETRA, and the fluorescence intensity before and after addition was measured over a period of 4 minutes. The dye incubation time and temperature as well as instrument setting was adjusted so the fluorescence intensity could be compared between plates on the same day. EC50 and IC50 were analyzed using GraphPad Prism 4 software (GraphPad Software Inc., San Diego, Calif.).
For assays, U-II agonist, U-II antagonist and urantide were diluted with HBSS/HEPES containing 0.01% FBS.
Test compounds were dissolved in DMSO at 10 mM concentration. The serial dilutions were carried out in HBSS/HEPES. The highest final DMSO concentration was at 0.1%.

[3] = biological target: T3, UT receptors in HSMM (Human Skeletal Muscle Myoblasts) (Homo sapiens, UniProt Q9UKP6); assay: Human Radioligand Binding Assay ((^125I)-U-II binding to intact HSMM)
T3 sequence (Q9UKP6 1-389): T2 sequence (Q9UKP6 1-389)

SMILES | IC50 [1] [nM] | IC50 [2] [nM] | Ki ([3]; read-out: Human UII Average Binding Ki, intact HSMM, 0.150 nM (^125I)-U-II, 3 h, 25° C.) [nM] | Ki [3] [nM]
COc1ccc([C@@H](CCCN(C)S(=O)(=O)c2cccs2)N2Cc3c(cccc3N3CCNCC3)C2=O)cc1OC [Cpd 30, thiophene-2-sulfonic acid [(4R)-4-(3,4-dimethoxy-phenyl)-4-(1-oxo-4-piperazin-1-yl-1,3-dihydro-isoindol-2-yl)-butyl]-methyl-amide] | 39 | 409 | 49 | –
CCN1CCN(c2cccc3c2CN([C@H](CCCSc2cccc[n+]2[O-])c2ccc(OC)c(OC)c2)C3=O)CC1 [Cpd 31, {(4R)-4-(3,4-dimethoxy-phenyl)-4-[4-(4-ethyl-piperazin-1-yl)-1-oxo-1,3-dihydro-isoindol-2-yl]-butylsulfanyl}-pyridine 1-oxide] | 11 | 602 | – | 135
CCN1CCN(c2cccc3c2CN([C@H](CCCn2ccnc2)c2ccc(OC)c(OC)c2)C3=O)CC1 [Cpd 32, 2-[(1R)-1-(3,4-dimethoxy-phenyl)-4-imidazol-1-yl-butyl]-4-(4-ethyl-piperazin-1-yl)-2,3-dihydro-isoindol-1-one] | 45 | 2040 | – | 157
COc1ccc([C@@H](CCCN(C)c2ccccc2)N2Cc3c(cccc3N3CCNCC3)C2=O)cc1OC [Cpd 33, 2-[(1R)-1-(3,4-dimethoxy-phenyl)-4-(methyl-phenyl-amino)-butyl]-4-piperazin-1-yl-2,3-dihydro-isoindol-1-one] | 307 | 4680 | – | 520
COc1ccc([C@@H](CCCOc2ccccc2)N2Cc3c(cccc3N3CCN(Cc4ccccc4)CC3)C2=O)cc1OC [Cpd 34, 4-(4-benzyl-piperazin-1-yl)-2-[(1R)-1-(3,4-dimethoxy-phenyl)-4-phenoxy-butyl]-2,3-dihydro-isoindol-1-one] | 105 | 310 | – | 32
COc1ccc([C@@H](CCCn2ccnc2)N2Cc3c(cccc3N3CCNCC3)C2=O)cc1OC [Cpd 35, 2-[(1R)-1-(3,4-dimethoxy-phenyl)-4-imidazol-1-yl-butyl]-4-piperazin-1-yl-2,3-dihydro-isoindol-1-one] | 1900 | > 10000 | – | 1100
COc1ccc([C@@H](CCCSc2ccccc2)N2Cc3c(cccc3N3CCNCC3)C2=O)cc1OC [Cpd 36, 2-[(1R)-1-(3,4-dimethoxy-phenyl)-4-phenylsulfanyl-butyl]-4-piperazin-1-yl-2,3-dihydro-isoindol-1-one] | 19 | 1150 | – | 122
COc1ccc([C@@H](CCCOc2ccccc2)N2Cc3c(cccc3N3CCNCC3)C2=O)cc1OC [Cpd 37, 2-[(1R)-1-(3,4-dimethoxy-phenyl)-4-phenoxy-butyl]-4-piperazin-1-yl-2,3-dihydro-isoindol-1-one] | 14 | 448 | – | 50
CC[N+]1(C)CCN(c2cccc3c2CN([C@H](CCCN(Cc2ccccc2)Cc2ccccc2)c2ccc(OC)c(OC)c2)C3=O)CC1 [Cpd 38, 4-{2-[(1R)-4-dibenzylamino-1-(3,4-dimethoxy-phenyl)-butyl]-1-oxo-2,3-dihydro-1H-isoindol-4-yl}-1-ethyl-1-methyl-piperazin-1-ium] | 185 | 2850 | – | > 300
CCN1CCN(c2cccc3c2CN([C@H](CCCN(C)S(=O)(=O)c2cn(C)c(C)n2)c2ccc(OC)c(OC)c2)C3=O)CC1 [Cpd 39, 1,2-dimethyl-1H-imidazole-4-sulfonic acid {(4R)-4-(3,4-dimethoxy-phenyl)-4-[4-(4-ethyl-piperazin-1-yl)-1-oxo-1,3-dihydro-isoindol-2-yl]-butyl}-methyl-amide] | 138 | 988 | – | 162
CCN1CCN(c2cccc3c2CN([C@H](CCCNc2ccccc2)c2ccc(OC)c(OC)c2)C3=O)CC1 [Cpd 40, 2-[(1R)-1-(3,4-dimethoxy-phenyl)-4-phenylamino-butyl]-4-(4-ethyl-piperazin-1-yl)-2,3-dihydro-isoindol-1-one] | 10 | 370 | – | 75
COc1ccc([C@@H](CCCOCc2ccccc2)N2Cc3c(cccc3N3CCNCC3)C2=O)cc1OC [Cpd 41, 2-[(1R)-4-benzyloxy-1-(3,4-dimethoxy-phenyl)-butyl]-4-piperazin-1-yl-2,3-dihydro-isoindol-1-one] | 22 | 450 | – | 165
CCN1CCC(C(c2ccc(OC)c(OC)c2)N2Cc3c(cccc3N3CCN(CC)CC3)C2=O)CC1 (stereo not drawn) [Cpd 42, 2-[(3,4-dimethoxy-phenyl)-(1-ethyl-piperidin-4-yl)-methyl]-4-(4-ethyl-piperazin-1-yl)-2,3-dihydro-isoindol-1-one] | 3600 | > 10000 | – | > 300
CCN1CCN(c2cccc3c2CN(C(c2ccc(OC)c(OC)c2)C2CCN(Cc4ccccc4)CC2)C3=O)CC1 (stereo not drawn) [Cpd 43, 2-[(1-benzyl-piperidin-4-yl)-(3,4-dimethoxy-phenyl)-methyl]-4-(4-ethyl-piperazin-1-yl)-2,3-dihydro-isoindol-1-one] | 173 | 2680 | – | > 300
CCN1CCN(c2cccc3c2CN(C(c2ccc(OC)c(OC)c2)C2CCN(S(=O)(=O)c4cn(C)c(C)n4)CC2)C3=O)CC1 (stereo not drawn) [Cpd 44, 2-{(3,4-dimethoxy-phenyl)-[1-(1,2-dimethyl-1H-imidazole-4-sulfonyl)-piperidin-4-yl]-methyl}-4-(4-ethyl-piperazin-1-yl)-2,3-dihydro-isoindol-1-one] | 7330 | 3060 | – | > 300
CCN1CCN(c2cccc3c2CN(C(c2ccc(OC)c(OC)c2)C2CCN(S(=O)(=O)c4cccs4)CC2)C3=O)CC1 (stereo not drawn) [Cpd 45, 2-{(3,4-dimethoxy-phenyl)-[1-(thiophene-2-sulfonyl)-piperidin-4-yl]-methyl}-4-(4-ethyl-piperazin-1-yl)-2,3-dihydro-isoindol-1-one] | 465 | 3320 | – | > 300
CCN1CCN(c2cccc3c2CN([C@H](CCCOCc2c(F)cccc2F)c2ccc(OC)c(OC)c2)C3=O)CC1 [Cpd 46, 2-[(1R)-4-(2,6-difluoro-benzyloxy)-1-(3,4-dimethoxy-phenyl)-butyl]-4-(4-ethyl-piperazin-1-yl)-2,3-dihydro-isoindol-1-one] | 7730 | > 10000 | – | > 300
CCN1CCN(c2cccc3c2CN([C@H](CCCOCc2ccccc2Cl)c2ccc(OC)c(OC)c2)C3=O)CC1 [Cpd 47, 2-[(1R)-4-(2-chloro-benzyloxy)-1-(3,4-dimethoxy-phenyl)-butyl]-4-(4-ethyl-piperazin-1-yl)-2,3-dihydro-isoindol-1-one] | 1300 | 6140 | – | > 300

Reference: patent US8008299B2, “Urotensin II receptor antagonists” (Janssen Pharmaceutica, N.V., priority 2007, dated 2011)
